Measured values published in patent US20230321100A1, “CD73 INHIBITOR AND APPLICATION THEREOF IN MEDICINE” (BETTA PHARMACEUTICALS CO., LTD, priority 2020, published 2023).
pIC50: −log10 of the molar value.

Molecular target: T1, CD73 (Calu-6 cells) (Homo sapiens, UniProt P21589)
T1 construct: endogenous in cells; host or cells: Calu-6 cells
T1 sequence (P21589 27-549): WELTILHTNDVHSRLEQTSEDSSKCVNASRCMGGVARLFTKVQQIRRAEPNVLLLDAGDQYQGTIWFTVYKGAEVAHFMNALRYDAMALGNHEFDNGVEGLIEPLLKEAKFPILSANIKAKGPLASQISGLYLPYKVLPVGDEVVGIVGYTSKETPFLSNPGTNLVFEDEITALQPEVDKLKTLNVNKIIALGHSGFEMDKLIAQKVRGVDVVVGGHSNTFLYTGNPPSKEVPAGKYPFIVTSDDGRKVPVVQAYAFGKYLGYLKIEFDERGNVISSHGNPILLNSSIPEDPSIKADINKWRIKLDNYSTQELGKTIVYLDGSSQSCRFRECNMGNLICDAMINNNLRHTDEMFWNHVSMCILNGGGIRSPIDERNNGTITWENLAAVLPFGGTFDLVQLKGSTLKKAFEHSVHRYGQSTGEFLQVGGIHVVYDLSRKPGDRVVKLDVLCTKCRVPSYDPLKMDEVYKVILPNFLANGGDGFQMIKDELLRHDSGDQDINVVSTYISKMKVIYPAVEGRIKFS
Test: Enzymatic activity detection at the cellular level (Calu-6 cells, AMP substrate, Cell-titer Glo luminescence)
Type: cell-based
Details: enzymatic IC50 at the Calu-6 cell level, 30 min pre-incubation, 120 min at 37° C.
Description: The Calu-6 cells were digested and re-suspended using TM buffer (25 mM Tris, 5 mM MgCl2, pH 7.5). Calu-6 cell suspension was seeded into 96 well cell culture plate, and the number of cells per well was 2.5×10^4, adding volume of 100 μL/well. Compound solution with gradient concentration was prepared by TM buffer, and 50 μL DMSO solution with different concentration was added into each pore cell. […] Pre-incubated in a shaker at 37° C. for 30 min. Each well was added with 50 μL 800 μM AMP solution. The shaker at 37° C. for 120 min was continued to incubate, then the 96-well plates were centrifuged and 50 μL supernatant was transferred to the new 96-well plates. […] The luminescence value was read by the multi-function enzymatic reader and converted into the inhibition percentage: Inhibition percentage=(1−reading/Max)*100. The “maximum value” was DMSO control. IC50 values were obtained by curve fitting with GraphPad Prism software.

O=c1[nH]cc(-c2cc(C3CC3c3ccc(Cl)cc3)c(Cl)nn2)c(=O)[nH]1 (stereo not shown) [Compound 28, 5-(6-chloro-5-(2-(4-chlorophenyl)cyclopropyl)pyridazin-3-yl)pyrimidine-2,4(1H,3H)-dione]
pIC50: 8.57

Cc1nnc(-c2c[nH]c(=O)[nH]c2=O)cc1[C@H]1C[C@@H]1C=C(F)F [Compound 11, 5-(5-((1S,2S)-2-(2,2-difluorovinyl)cyclopropyl)-6-methylpyridazin-3-yl)pyrimidine-2,4(1H,3H)-dione]
pIC50: 7.34

N#Cc1nnc(-c2c[nH]c(=O)[nH]c2=O)cc1C1CC1c1ccc(Cl)cc1 (stereo not shown) [Compound 36, 4-(2-(4-chlorophenyl)cyclopropyl)-6-(2,4-dioxo-1,2,3,4-tetrahydropyrimidin-5-yl)pyridazine-3-carbonitrile]
pIC50: 8.72

Cc1nnc(-c2c[nH]c(=O)[nH]c2=O)cc1[C@H]1C[C@@H]1/C=C/C#N [Compound 10, (E)-3-((1R,2S)-2-(6-(2,4-dioxo-1,2,3,4-tetrahydropyrimidin-5-yl)-3-methylpyridazin-4-yl)cyclopropyl)acrylonitrile]
pIC50: 7.51

C=C[C@H]1C[C@@H]1c1cc(-c2c[nH]c(=O)[nH]c2=O)nnc1OC [Compound 39, 5-(6-methoxy-S-((1S,2R)-2-vinylcyclopropyl)pyridazin-3-yl)pyrimidine-2,4(1H,3H)-dione]
pIC50: 8.60

O=c1[nH]cc(-c2cc([C@H]3C[C@@H]3C#Cc3ccccn3)c(Cl)nn2)c(=O)[nH]1 [Compound 43]
pIC50: 8.43

N#Cc1cccc(C2CC2c2cc(-c3c[nH]c(=O)[nH]c3=O)nnc2Cl)c1 (stereo not shown) [Compound 26, 3-(2-(3-chloro-6-(2,4-dioxo-1,2,3,4-tetrahydropyrimidin-5-yl)pyridazin-4-yl)cyclopropyl)benzonitrile]
pIC50: 8.06

Cc1ccc(C2CC2c2cc(-c3c[nH]c(=O)[nH]c3=O)nnc2Cl)c(C)c1 (stereo not shown) [Compound 61]
pIC50: 7.72

Cc1ccc(C2CC2c2cc(-c3c[nH]c(=O)[nH]c3=O)nnc2Cl)cc1C (stereo not shown) [Compound 62]
pIC50: 8.25

N#Cc1ccc(C#C[C@H]2C[C@@H]2c2cc(-c3c[nH]c(=O)[nH]c3=O)nnc2C#N)cc1 [Compound 55]
pIC50: 8.25

N#Cc1nnc(-c2c[nH]c(=O)[nH]c2=O)cc1C1CC1c1ccccc1 (stereo not shown) [Compound 34, 6-(2,4-dioxo-1,2,3,4-tetrahydropyrimidin-5-yl)-4-(2-phenylcyclopropyl)pyridazine-3-carbonitrile]
pIC50: 8.23

O=c1[nH]cc(-c2cc(C3CC3c3ccc(F)cc3)c(Cl)nn2)c(=O)[nH]1 (stereo not shown) [Compound 27, 5-(6-chloro-5-(2-(4-fluorophenyl)cyclopropyl)pyridazin-3-yl)pyrimidine-2,4(1H,3H)-dione]
pIC50: 8.74

O=c1[nH]cc(-c2cc(C3CC3c3c(F)cc(F)cc3F)c(Cl)nn2)c(=O)[nH]1 (stereo not shown) [Compound 72]
pIC50: 8.31

N#Cc1ccc(/C=C/[C@H]2C[C@@H]2c2cc(-c3c[nH]c(=O)[nH]c3=O)nnc2Cl)cc1 [Compound 17, 4-((E)-2-((1R,2S)-2-(3-chloro-6-(2,4-dioxo-1,2,3,4-tetrahydropyrimidin-5-yl)pyridazin-4-yl)cyclopropyl)vinyl)benzonitrile]
pIC50: 8.64

O=c1[nH]cc(-c2cc([C@H]3C[C@@H]3c3nc4ccccc4[nH]3)c(Cl)nn2)c(=O)[nH]1 [Compound 60, 5-(5-((1S,2S)-2-(1H-benzo[d]imidazol-2-yl)cyclopropyl)-6-chloropyridazin-3-yl)pyrimidine-2, 4(1H,3H)-dione]
pIC50: 7.63

COc1nnc(-c2c[nH]c(=O)[nH]c2=O)cc1C1CC1c1ccccc1 (stereo not shown) [Compound 31, 5-(6-methoxy-5-(2-phenylcyclopropyl)pyridazin-3-yl)pyrimidine-2,4(1H,3H)-dione]
pIC50: 8.38

COc1cccc(C2CC2c2cc(-c3c[nH]c(=O)[nH]c3=O)nnc2Cl)c1 (stereo not shown) [Compound 29, 5-(6-chloro-5-(2-(3-methoxyphenyl)cyclopropyl)pyridazin-3-yl)pyrimidine-2,4(1H,3H)-dione]
pIC50: 8.39

N#Cc1ccccc1C#C[C@H]1C[C@@H]1c1cc(-c2c[nH]c(=O)[nH]c2=O)nnc1Cl [Compound 46]
pIC50: 8.36

N#Cc1ccc(C#C[C@H]2C[C@@H]2c2cc(-c3c[nH]c(=O)[nH]c3=O)nnc2Cl)cc1 [Compound 45]
pIC50: 8.82

COc1nnc(-c2c[nH]c(=O)[nH]c2=O)cc1[C@H]1C[C@@H]1C#Cc1cccc(C#N)c1 [Compound 51]
pIC50: 8.37

COc1ccc(C#C[C@H]2C[C@@H]2c2cc(-c3c[nH]c(=O)[nH]c3=O)nnc2Cl)cc1 [Compound 44]
pIC50: 8.51

O=c1[nH]cc(-c2cc(C3CC3c3ccc(F)cc3F)c(Cl)nn2)c(=O)[nH]1 (stereo not shown) [Compound 71]
pIC50: 8.34

O=c1[nH]cc(-c2cc(C3CC3c3ccc(C(F)(F)F)c(F)c3)c(Cl)nn2)c(=O)[nH]1 (stereo not shown) [Compound 68]
pIC50: 7.82

O=c1[nH]cc(-c2cc([C@H]3C[C@@H]3c3ccccc3)cnn2)c(=O)[nH]1 [Compound 59, 5-(5-((1S,2S)-2-phenylcyclopropyl)pyridazin-3-yl)pyrimidine-2,4(1H,3H)-dione]
pIC50: 8.00

O=Cc1ccc(C2CC2c2cc(-c3c[nH]c(=O)[nH]c3=O)nnc2Cl)cc1 (stereo not shown) [Compound 74]
pIC50: 8.57

N#Cc1cccc(C#C[C@H]2C[C@@H]2c2cc(-c3c[nH]c(=O)[nH]c3=O)nnc2Cl)c1 [Compound 19, 3-(((1S,2S)-2-(3-chloro-6-(2,4-dioxo-1,2,3,4-tetrahydropyrimidin-5-yl)pyridazin-4-yl)cvclopropyl)ethynyl)benzonitrile]
pIC50: 8.52

CC[C@H]1C[C@@H]1c1cc(-c2c[nH]c(=O)[nH]c2=O)nnc1C1CC1 [Compound 3, 5-(6-cyclopropyl-5-((1S,2S)-2-ethylcyclopropyl)pyridazin-3-yl)pyrimidine-2,4(1H,3H)-dione]
pIC50: 6.14

O=c1[nH]cc(-c2cc([C@H]3C[C@@H]3C#Cc3ccncc3)c(Cl)nn2)c(=O)[nH]1 [Compound 37, 5-(6-chloro-5-((1S,2S)-2-(pyridin-4-ylethynyl)cyclopropyl)pyridazin-3-yl)pyrimidine-2,4(1H, 3H)-dione]
pIC50: 8.92

O=c1[nH]cc(-c2cc(C3CC3c3cccc4ccccc34)c(Cl)nn2)c(=O)[nH]1 (stereo not drawn) [Compound 30, 5-(6-chloro-S-(2-(naphthalen-1yl)cyclopropyl)pyridazin-3-yl)pyrimidine-2,4(1H,3H)-dione]
pIC50: 7.22

C=CC1CC1c1cc(-c2c[nH]c(=O)[nH]c2=O)nnc1C (stereo not shown) [Compound 6, 5-(6-methyl-5-(2-vinylcyclopropyl)pyridazin-3-yl)pyrimidine-2,4(1H,3H)-dione]
pIC50: 7.29

COc1nnc(-c2c[nH]c(=O)[nH]c2=O)cc1[C@H]1C[C@@H]1/C=C/c1ccccc1 [Compound 20, 5-(6-methoxy-S-((1S,2R)-2-((E)-styryl)cyclopropyl)pyridazin-3-yl)pyrimidine-2,4(1H,3H)-dione]
pIC50: 8.92

O=c1[nH]cc(-c2cc(C3CC3c3ccccc3)c(Cl)nn2)c(=O)[nH]1 (stereo not shown) [Compound 23, 5-(6-chloro-5-(2-phenylcyclopropyl)pyridazin-3-yl)pyrimidine-2,4(1H,3H)-dione]
pIC50: 8.85

C=C1CC(c2cc(-c3c[nH]c(=O)[nH]c3=O)nnc2Cl)C1 [Compound 4, 5-(6-chloro-5-(3-methylenecyclobutyl)pyridazin-3-yl)pyrimidine-2,4(1H,3H)-dione]
pIC50: 7.65

O=c1[nH]cc(-c2cc([C@H]3C[C@@H]3C#Cc3ccc(F)cc3)c(Cl)nn2)c(=O)[nH]1 [Compound 48]
pIC50: 8.42

N#Cc1ccc(C#C[C@H]2C[C@@H]2c2cc(-c3c[nH]c(=O)[nH]c3=O)nnc2Cl)nc1 [Compound 38, 6-(((1S,2S)-2-(3-chloro-6-(2,4-dioxo-1,2,3,4-tetrahydropyrimidin-5-yl)pyridazin-4-yl)cyclopropyl)ethynyl)nicotinonitrile]
pIC50: 8.43

Cc1nnc(-c2c[nH]c(=O)[nH]c2=O)cc1[C@H]1C[C@@H]1C#Cc1ccccc1 [Compound 41, 5-(6-methyl-5-((1S,2S)-2-(phenylethynyl)cyclopropyl)pyridazin-3-yl)pyrimidine-2,4(1H,3H)-dione]
pIC50: 8.12

N#Cc1ccc(C2CC2c2cc(-c3c[nH]c(=O)[nH]c3=O)nnc2C#N)cc1 (stereo not shown) [Compound 78, 4-(2-(4-cyanophenyl)cyclopropyl)-6-(2,4-dioxo-1,2,3,4-tetrahydropyrimidin-5-yl)pyridazine-3-carbonitrile]
pIC50: 8.07

O=c1[nH]cc(-c2cc(C3CC3c3ccc(-c4ccccc4)cc3)c(Cl)nn2)c(=O)[nH]1 (stereo not shown) [Compound 76]
pIC50: 7.28

N#Cc1nnc(-c2c[nH]c(=O)[nH]c2=O)cc1[C@H]1C[C@@H]1C#Cc1ccccc1 [Compound 54]
pIC50: 8.09

O=c1[nH]cc(-c2cc(C3CC3c3cccc(C(F)(F)F)c3)c(Cl)nn2)c(=O)[nH]1 (stereo not shown) [Compound 67]
pIC50: 8.14
